Laboratory results reported in patent US20250201957A1, “SEPARATION RECOVERY METHOD OF METAL IONS AND ACIDIC METAL EXTRACTANT” (FUJIFILM Corporation, priority 2022, published 2025).

Test: pKa of metal extractant by neutralization titration
Type: physicochemical
Settings: not given
Source text: The acidic metal extractant includes two or more coordinating functional groups, and at least one of the coordinating functional groups includes a carboxy group or each of acidic coordinating functional groups where one of R^C's represents a hydrogen atom. In the present invention, the acidic metal extractant is an acidic metal extractant for dissociating hydrogen ions (H^+) and can be defined by an acid dissociation constant pKa. For example, an acidic metal extractant having pkA of 0.1 to 12 is preferable, an acidic metal extractant having pkA of 0.5 to 12 is more preferable, and an acidic metal extractant having pkA of 1 to 8 is still more preferable. In the present invention, the pKa is a value measured by neutralization titration.
Regarding the synthesized or prepared acidic metal extractant, the molecular weight and the pKa calculated using the above-described method are shown in Table 1-2.

Molecule	pKa
CCCCC(CC)COP(=O)(CP(=O)(OCC)OCC(CC)CCCC)OCC (stereo not shown) [E-7]	None
Versatic acid 10 [VA-10, reference compound]	7.9

Same assay, conditions: read-out: pKa

Molecule	pKa
CCCCC(CC)COP(=O)(O)CCCP(=O)(O)OCC(CC)CCCC (stereo not shown) [E-1]	1.1
CCCCC(CC)COP(=O)(O)CP(=O)(O)OCC(CC)CCCC (stereo not shown) [E-2]	0.8
CCCCC(CC)COP(=O)(O)CP(=O)(OCC)OCC(CC)CCCC (stereo not shown) [E-3]	2.1
CCCCC(CC)CC(CC(CC)CCCC)(C(=O)O)C(=O)O (stereo not shown) [E-4]	6.5
CCCCC(CC)COP(=O)(O)CCP(=O)(O)OCC(CC)CCCC (stereo not shown) [E-5]	0.9
CCCCCCCCOP(=S)(S)CP(=S)(S)OCCCCCCCC (stereo not shown) [E-6]	0.3
CCCCC(CC)COP(=O)(O)C(C)(O)P(=O)(O)OCC(CC)CCCC (stereo not shown) [E-8]	1.1
CCCCC(CC)COP(=O)(O)CC(CC)CCCC (stereo not shown) [PC-88A, mono-2-ethylhexyl (2-Ethylhexyl)phosphonate, reference compound]	4.6
